From patent publication US20160318866A1, “SUBSTITUTED BIPIPERIDINYL DERIVATIVES” (Bayer Pharma Aktiengesellschaft, priority 2013, published 2016)

Experiments:
human α2C receptor = biological target: T1, human α2C receptor (Homo sapiens, UniProt P18825); experiment: Antagonism against the adrenoreceptor α2C (luminescence, recombinant CHO cell line); assay type: cell-based; details: antagonism against adrenoreceptor α2C; noradrenaline 20 nM; tested up to 10 μM; read-out: IC50
T1 construct: expressed in transfected cells; host or cells: CHO cells, also recombinantly expressing chimeric G protein Gαqi3 and mitochondrial obelin (mtOb)
T1 sequence (P18825 1-462): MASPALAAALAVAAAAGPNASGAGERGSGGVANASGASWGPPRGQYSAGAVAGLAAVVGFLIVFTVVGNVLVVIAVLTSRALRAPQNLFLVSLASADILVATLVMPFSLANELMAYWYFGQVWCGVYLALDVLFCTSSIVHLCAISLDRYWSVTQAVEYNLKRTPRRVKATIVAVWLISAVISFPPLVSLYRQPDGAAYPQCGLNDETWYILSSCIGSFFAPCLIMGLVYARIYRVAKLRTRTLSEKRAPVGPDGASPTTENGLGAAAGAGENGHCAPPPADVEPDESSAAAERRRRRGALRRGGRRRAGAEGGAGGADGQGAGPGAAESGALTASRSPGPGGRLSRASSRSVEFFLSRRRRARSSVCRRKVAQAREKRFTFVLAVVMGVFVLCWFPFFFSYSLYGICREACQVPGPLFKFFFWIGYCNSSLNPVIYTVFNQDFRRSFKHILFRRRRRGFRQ
Outline: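 CHO cells expressing human α2C receptor with chimeric Gαqi3 and mitochondrial obelin, loaded with 2.5 μg/ml coelenterazine for one day at 30 °C.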

adult female Wistar rats = experiment: Radiotelemetric measurement of blood pressure and heart rate of conscious rats; assay type: in vivo, rat; details: 5 and 15 mg/kg, oral, telemetry over 24 hours
Source text: A commercially available telemetry system from Data Sciences International DSI, USA, was employed for the measurements on conscious rats described below. The system consists of 3 main components: (1) implantable transmitters (Physiotel® telemetry transmitter), (2) receivers (Physiotel® receiver), which are linked via a multiplexer (DSI Data Exchange Matrix) to a (3) data acquisition computer. The telemetry system makes it possible to continuously record blood pressure, heart rate and body motion of conscious animals in their usual habitat.
The studies were conducted on adult female Wistar rats with a body weight of >200 g. After transmitter implantation, the experimental animals were housed singly in type III Makrolon® cages. They had free access to standard feed and water. The day/night rhythm in the test laboratory was set by changing the illumination of the room.
The telemetry transmitters used (PA-C40, DSI) were surgically implanted under aseptic conditions in the experimental animals at least 14 days before the first experimental use.
For the implantation, the fasted animals were anaesthetized with isoflurane (IsoFlo®, Abbott, initiation 5%, maintenance 2%) and shaved and disinfected over a large area of their abdomens. […]
Each of the instrumented rats living in the system was assigned a separate receiving antenna (RPC-1 Receiver, DSI). […] The signals emitted were detected online by a data acquisition system (Dataquest™ A.R.T. for Windows, DSI) and processed accordingly.
In the standard procedure, the following were measured for 10-second periods in each case: (1) systolic blood pressure (SBP), (2) diastolic blood pressure (DBP), (3) mean arterial pressure (MAP), (4) heart rate (HR) and (5) activity (ACT). These parameters were measured over 24 hours after administration.
The acquisition of measurements was repeated under computer control at 5-minute intervals. The source data obtained as absolute values were corrected in the diagram with the currently measured barometric pressure (Ambient Pressure Reference Monitor, APR-1, DSI). […]

Question: What does the source list for `CC1CCCN(C2CCN(C(=O)c3ccc(C(C)(C)O)cc3)CC2)C1` (single isomer, unassigned) [Example 8, [4-(1-Hydroxy-1-methylethyl)phenyl)](3-methyl-1,4′-bipiperidin-1′-yl)methanone, (−)-enantiomer]?
Answer: IC50 (human α2C receptor): 0.163 µM; blood pressure (adult female Wistar rats): without any effect on blood pressure; heart rate (adult female Wistar rats): slight transient increase of the heart rate
